This note sets out measurements from ChEMBL document CHEMBL1201862, “PubChem BioAssay data set” (2004).

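These data come from cells grown in 96-well plates and exposed to compound for 48 hours at five concentrations. GI50 = concentration required for 50% inhibition of growth.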 Calls of active or inactive are those of the source. No stated cut-off is given here; in the data, active = GI50 up to about 1.1 µM and inactive = higher.

Test systems include 786-0; A549; DU-145; KM12; MCF7; MDA-MB-435; MOLT-4; NCI-H226; NCI-H23; NCI-H460; OVCAR-3; SF-268; SK-MEL-5; SNB-19; SW-620; UO-31; Malme-3M; MDA-MB-231; NCI/ADR-RES.
Holding throughout (assay): growth of human tumour cells (NCI), 48 h

For `COc1cc(C2C(Cl)C(=O)N2NC(=O)c2ccccc2O)cc(OC)c1OC` (centres undefined), the GI50 was > 10 µM (inactive) in the assay with 786-0; 4.27 µM (inactive) in the assay on A549; 0.284 µM (active) in the assay with DU-145; 5.58 µM (inactive) in the assay with KM12; 2.9 µM (inactive) in the assay with MCF7; 6.03 µM (inactive) with MDA-MB-435. For the same compound, the GI50 in the assay on MOLT-4 was 3.01 µM (inactive); in the assay with NCI-H226, 4.49 µM (inactive); in the assay on NCI-H23, 2.4 µM (inactive); in the assay with NCI-H460, 2.64 µM (inactive); with OVCAR-3, 4.72 µM (inactive); in the assay with SF-268, 5.73 µM (inactive). Moreover, the GI50 in the assay with SK-MEL-5 was 5.07 µM (inactive); in the assay on SNB-19, 7.05 µM (inactive); in the assay on SW-620, 2.63 µM (inactive); with UO-31 it was 7.76 µM (inactive).
Take `COC(=O)C(=O)C(C(=O)C(=O)Nc1cccc(C(C)=O)c1)c1nc2ccccc2nc1O` (centres undefined): the GI50 in the assay with 786-0, with A549, with KM12, in the assay on MOLT-4, in the assay with Malme-3M and in the assay with NCI-H226 was > 100 µM (inactive) throughout. Moreover, the GI50 with NCI-H23, with NCI-H460, with OVCAR-3, with SF-268, in the assay with SK-MEL-5 and in the assay with SNB-19 was > 100 µM (inactive) each time. The GI50 in the assay on SW-620 and with UO-31 was > 100 µM (inactive) in each case.
As to `CC(=O)NC1=C(C)C(=O)c2c(nc3n2CCC3OC(=O)CCl)C1=O` (centres undefined), the GI50 in the assay on 786-0 was 9.48 µM (inactive); in the assay on A549, 12.9 µM (inactive); with KM12, 15.6 µM (inactive); in the assay on MOLT-4, 1.69 µM (inactive); in the assay with Malme-3M, 3.66 µM (inactive); in the assay on NCI-H226 it was 2.52 µM (inactive). Also, the GI50 in the assay on NCI-H23 is 11.7 µM (inactive); with NCI-H460, 20.1 µM (inactive); in the assay with OVCAR-3, 1.41 µM (inactive); in the assay on SF-268, 10.3 µM (inactive); with SK-MEL-5 it was 12.7 µM (inactive); in the assay with SNB-19, 16.6 µM (inactive). Besides, the values for the GI50 in the assay with SW-620 and in the assay on UO-31 were 8.99 µM (inactive) and 18 µM (inactive), respectively.
As for `Cc1c(C(=O)CC(=O)C(=O)Nc2cc(Cl)ccc2Cl)[n+]([O-])c2ccccc2[n+]1[O-]`, the GI50 with 786-0 is 61.5 µM (inactive); with A549 it was 40.1 µM (inactive); with KM12, 37.3 µM (inactive); in the assay on MOLT-4, 26.6 µM (inactive); in the assay with Malme-3M, 43.6 µM (inactive); in the assay on NCI-H226 it was > 100 µM (inactive). Further, the GI50 in the assay on NCI-H23 was 21.5 µM (inactive); in the assay on NCI-H460, 37 µM (inactive); in the assay with OVCAR-3 it was 19.9 µM (inactive); in the assay on SF-268, 33.4 µM (inactive); in the assay with SK-MEL-5, 32.6 µM (inactive); in the assay on SNB-19 it was 45.5 µM (inactive). Besides, the GI50 in the assay with SW-620 is 36 µM (inactive); in the assay on UO-31, > 100 µM (inactive).
As for `CC(=O)NNc1nc(C)c(C(/C=C/c2ccc(Cl)cc2)=N\N=C(N)N)s1`, the GI50 in the assay with 786-0, in the assay with A549, with KM12, in the assay on MOLT-4, in the assay with Malme-3M and in the assay with NCI-H226 was > 100 µM (inactive) throughout. Moreover, the GI50 in the assay with NCI-H23, in the assay with NCI-H460, in the assay with OVCAR-3, in the assay on SF-268, in the assay on SK-MEL-5 and in the assay with SNB-19 was > 100 µM (inactive) each time. Moreover, the GI50 in the assay with SW-620 and in the assay with UO-31 was > 100 µM (inactive) each time.
In the case of `COC(=O)C12OCC34C(CC5C(C)C6=CC(=O)OC6=CC5(C)C3C(O)C1O)OC(=O)C(O)C24` (centres undefined), the GI50 in the assay on 786-0 is 0.594 µM (active); with A549 it was 1.1 µM (active); with KM12, 1.21 µM (inactive); in the assay with MOLT-4 it was 0.153 µM (active); in the assay with Malme-3M, 0.159 µM (active); in the assay on NCI-H226, 0.293 µM (active). Further, the GI50 with NCI-H23 was 0.238 µM (active); with NCI-H460, 0.204 µM (active); in the assay with OVCAR-3 it was 0.655 µM (active); with SF-268, 0.504 µM (active); in the assay on SK-MEL-5 it was 0.0794 µM (active); with SNB-19, 0.0371 µM (active). Besides, the GI50 with SW-620 was 0.497 µM (active); in the assay on UO-31, 16.1 µM (inactive).
As to `N#CC(C(=O)CCC(=O)Nc1ccc(Cl)cc1)c1ccc(Cl)cc1` (centres undefined), the GI50 in the assay with 786-0 is > 100 µM (inactive); with A549, > 100 µM (inactive); in the assay with KM12, 91.8 µM (inactive); in the assay on MOLT-4 it was > 100 µM (inactive); with Malme-3M, > 100 µM (inactive); in the assay on NCI-H226, > 100 µM (inactive). Further, the GI50 with NCI-H23 was > 100 µM (inactive); in the assay with NCI-H460 it was > 100 µM (inactive); in the assay on OVCAR-3, > 100 µM (inactive); in the assay with SF-268, 93.3 µM (inactive); in the assay with SK-MEL-5 it was > 100 µM (inactive); in the assay on SNB-19, > 100 µM (inactive). The GI50 with SW-620 and with UO-31 was > 100 µM (inactive) in each case.
For the compound `Nc1c(S(=O)(=O)c2ccccc2)c2nc3ccccc3nc2n2c1nc1ccccc12`, the GI50 in the assay on 786-0 is 8.09 µM (inactive); in the assay with A549 it was > 51.5 µM (inactive); in the assay on KM12, > 64 µM (inactive); in the assay with MOLT-4 it was > 29.4 µM (inactive); in the assay on Malme-3M, 19.5 µM (inactive); with NCI-H226, 37.5 µM (inactive). In addition, the GI50 was 19.4 µM (inactive) in the assay with NCI-H23; 34.3 µM (inactive) with NCI-H460; > 25.4 µM (inactive) in the assay on OVCAR-3; > 45.3 µM (inactive) in the assay on SF-268; 32.4 µM (inactive) in the assay with SK-MEL-5; > 51.8 µM (inactive) in the assay with SNB-19. The GI50 is > 68.2 µM (inactive) in the assay on SW-620 and > 100 µM (inactive) in the assay on UO-31.
For `COC(=O)c1cccn1C(=O)n1cccc1`, the GI50 in the assay on 786-0, with A549, with KM12, in the assay on MOLT-4, with Malme-3M and in the assay on NCI-H226 was > 100 µM (inactive) each time. Moreover, the GI50 in the assay with NCI-H23, in the assay on NCI-H460, in the assay on OVCAR-3, in the assay with SF-268, in the assay with SK-MEL-5 and with SNB-19 was > 100 µM (inactive) throughout. In addition, the GI50 in the assay with SW-620 and in the assay with UO-31 was > 100 µM (inactive) in each case.
`CCOC(=O)C1(C(=O)OCC)C[C@@H](C)[C@@H](O)C1`: the GI50 in the assay with 786-0, with A549, in the assay with DU-145, with KM12, in the assay on MCF7 and with MDA-MB-231 was > 100 µM (inactive) each time. The GI50 in the assay with MDA-MB-435 was > 100 µM (inactive); with MOLT-4 it was > 100 µM (inactive); in the assay with Malme-3M, 72.1 µM (inactive); in the assay with NCI-H226 it was > 100 µM (inactive); with NCI-H23, > 100 µM (inactive); in the assay on NCI-H460, > 100 µM (inactive). Also, the GI50 with NCI/ADR-RES, in the assay with OVCAR-3, in the assay on SF-268, in the assay with SK-MEL-5, in the assay with SNB-19 and with SW-620 was > 100 µM (inactive) in each case. The GI50 with UO-31 is > 100 µM (inactive).
In the case of `CN(C)C(=S)OC(Cn1cncn1)c1ccc(Cl)cc1Cl` (centres undefined), the GI50 with 786-0, with A549, in the assay on KM12, in the assay on MOLT-4, with Malme-3M and with NCI-H226 was > 100 µM (inactive) throughout. For the same compound, the GI50 with NCI-H23 is > 100 µM (inactive); in the assay with NCI-H460 it was > 100 µM (inactive); in the assay on OVCAR-3 it was > 100 µM (inactive); with SF-268, > 100 µM (inactive); with SK-MEL-5 it was 96.4 µM (inactive); in the assay with SNB-19, > 100 µM (inactive). Besides, the GI50 in the assay on SW-620 and in the assay on UO-31 was > 100 µM (inactive) in each case.
On to `O=C(O)C[C@@H](Cl)[C@H](NC(=O)OCc1ccccc1)C(=O)O`, for which the GI50 in the assay on 786-0, with A549, in the assay with KM12, in the assay with MOLT-4, in the assay with Malme-3M and with NCI-H226 was > 100 µM (inactive) throughout. Also, the GI50 in the assay on NCI-H23, in the assay with NCI-H460, in the assay with OVCAR-3, in the assay on SF-268, in the assay on SK-MEL-5 and in the assay with SNB-19 was > 100 µM (inactive) in each case. Further, the GI50 in the assay on SW-620 and in the assay with UO-31 was > 100 µM (inactive) throughout.
Regarding `COC(=O)C1CCC2(C)[C@H](CCC3O[C@]32C)[C@@]1(C)CC(=O)c1ccoc1` (some centres undefined), the GI50 in the assay with 786-0 is > 100 µM (inactive); in the assay with A549 it was > 100 µM (inactive); in the assay with KM12, 42.2 µM (inactive); with MOLT-4 it was 28.3 µM (inactive); with Malme-3M it was > 100 µM (inactive); with NCI-H226 it was > 100 µM (inactive). Moreover, the GI50 with NCI-H23 was 71 µM (inactive); in the assay on NCI-H460, 72.9 µM (inactive); in the assay with OVCAR-3, > 100 µM (inactive); in the assay with SF-268, 48.4 µM (inactive); in the assay with SK-MEL-5, 66.1 µM (inactive); with SNB-19, 33.9 µM (inactive). Further, the GI50 in the assay on SW-620 was > 100 µM (inactive); in the assay on UO-31, 27.9 µM (inactive).
